From patent EP0723539B1, “TRICYCLIC SULFONAMIDE COMPOUNDS USEFUL FOR INHIBITION OF G-PROTEIN FUNCTION AND FOR TREATMENT OF PROLIFERATIVE DISEASES” (SCHERING CORPORATION, priority 1993, dated 1995)

Assays:
[1] = test system: T24-BAG4 human bladder carcinoma cells expressing an activated H-ras gene; assay: Cell Mat assay: inhibition of tumor cell growth; assay type: cell-based
Procedure: (§1) Normal human HEPM fibroblasts were planted in 3.5 cm dishes at a density of 5 x 10^4 cells/dish in 2 ml growth medium, and incubated for 3-5d to achieve confluence. Medium was aspirated from each dish and the indicator tumor cells, T24-BAG4 human bladder carcinoma cells expressing an activated H-ras gene, were planted on top of the fibroblast monolayer at a density of 2 x 10^3cells/dish in 2 ml growth medium, and allowed to attach overnight. Compound-induced colony inhibition was assayed by addition of serial dilutions of compound directly to the growth medium 24 h after tumor cell planting, and incubating cells for an additional 14 d to allow colony formation. Assays were terminated by rinsing monolayers twice with phosphate-buffered saline (PBS), fixing the monolayers with a 1% glutaraldehyde solution in PBS, then visualizing tumor cells by staining with X-Gal (Price, J., et al., Lineage analysis in the vertebrate nervous system by retrovirus-mediated gene transfer, Proc. Natl. Acad. Sci.84, 156-160(1987)). […] The therapeutic index of the compound was quantitatively expressed as the ratio of mIC50/tIC50, with values greater than one indicative of tumor target specificity.

[2] = test system: Normal human HEPM fibroblasts; assay: Cell Mat assay: inhibition of normal cell growth (cell mat); assay type: cell-based; details: Fibroblast, normal cell monolayer
Procedure: as §1

[3] = molecular target: T1, farnesyl protein transferase (FPT) (Rattus norvegicus, UniProt Q02293+Q04631); assay: In vitro enzyme assay: inhibition of farnesyl protein transferase (transfer of [3H]farnesyl to Ras-CVLS); assay type: biochemical
T1 construct: partially purified rat brain farnesyl protein transferase (FPT); from tissue; host or cells: rat brain
Excerpt: (§2) Both farnesyl protein transferase (FPT) and geranylgeranyl protein transferase (GGPT) I were partially purified from rat brain by ammonium sulfate fractionation followed by Q-Sepharose (Pharmacia, Inc.) anion exchange chromatography essentially as described by Yokoyama et al (Yokoyama, K., et al., (1991), A protein geranylgeranyltransferase from bovine brain: Implications for protein prenylation specificity, Proc. Natl. Acad. Sci USA 88: 5302-5306, the disclosure of which is incorporated herein by reference thereto). Two forms of val^12-Ha-Ras protein were prepared as substrates for these enzymes, differing in their carboxy terminal sequence. One form terminated in cysteine-valine-leucine-serine (Ras-CVLS) the other in cystein-valine-leucine-leucine (Ras-CVLL). […]
Several methods for measuring farnesyl protein transferase activity have been described (Reiss et al 1990, Cell 62: 81; Schaber et al 1990, J. Biol. Chem. 265: 14701; Manne et al 1990, PNAS 87: 7541; and Barbacid & Manne 1993, U.S. Patent No. 5,185,248). […] Filter mats were washed once with 6% TCA, 2% SDS and radioactivity was measured in a Wallac 1204 Betaplate BS liquid scintillation counter. Percent inhibition was calculated relative to the DMSO vehicle control.

Ras-CVLS processing = assay: Cell-based assay: Ras processing in Ras-transfected COS cells (immunoblot); set-up: species or system monkey; details: read-out: INHIBITION OF Ras PROCESSING IC50
Procedure: COS monkey kidney cells were transfected by electroporation with the plasmid pSV-SPORT (Gibco/BRL) containing a cDNA insert encoding either Ras-CVLS or Ras-CVLL, leading to transient overexpression of a Ras substrate for either farnesyl protein transferase or geranylgeranyl protein transferase I, respectively (see above).
Following electroporation, cells were plated into 6-well tissue culture dishes containing 1.5 ml of Dulbecco's-modified Eagle's media (GIBCO, Inc.) supplemented with 10% fetal calf serum and the appropriate farnesyl protein transferase inhibitors. After 24 hours, media was removed and fresh media containing the appropriate drugs was re-added. […]
Membranes were blocked by incubation overnight at 4°C in PBS containing 2.5% dried milk and 0.5% Tween-20 and then incubated with a Ras-specific monoclonal antibody, Y13-259 (Furth, M.E., et al., (1982), Monoclonal antibodies to the p21 products of the transforming gene of Harvey murine sarcome virus and of the cellular ras gene family, J. Virol. 43: 294-304), in PBS containing 1% fetal calf serum for one hour at room temperature. […] The presence of processed and unprocessed Ras-CVLS or Ras-CVLL was detected using a colorimetric peroxidase reagent (4-chloro-1-naphthol) as described by the manufacturer (Bio-Rad).

[4] = molecular target: T2, geranylgeranyl protein transferase (GGPT) I (Rattus norvegicus, UniProt P53610+Q04631); assay: In vitro enzyme assay: inhibition of geranylgeranyl protein transferase I (Ras-CVLL as acceptor); assay type: biochemical; details: Ras-CVLL as isoprenoid acceptor, read-out: inhibits GGPT
T2 construct: geranylgeranyl protein transferase (GGPT) I were partially purified from rat brain; from tissue; host or cells: rat brain
Excerpt: as §2, with “(Ras-CVLL). Ras-CVLS is a substrate for the famesyl protein transferase while Ras-CVLL is a substrate for geranylgeranyl protein transferase I. The cDNAs encoding these proteins were constructed so that the proteins contain an amino-terminal extension of 6 histidine residues. Both proteins were expressed in Escherichia coli and purified using metal chelate affinity chromatography. The radiolabelled isoprenyl pyrophosphate substrates, [3H]farnesyl pyrophosphate and [^3H]geranylgeranyl pyrophosphate, were purchased from DuPont/New England Nuclear.” for “(Ras-CVLL).”

Row | Structure (SMILES) | IC50 ([1]; Homo sapiens, Ras-transformed tumor cells) [µM] | IC50 [2] [µM] | FPT IC50 ([3]; partially purified rat brain FPT, Ras-CVLS farnesylation) [µM] | IC50 (Ras-CVLS processing) [µM] | antiproliferative activity against Ras-transformed cells (in words) [1] | inhibition at 42 µM [4] [%] | selective for FPT inhibition ([3]; FPT versus GGPT)
1 | C=CS(=O)(=O)N1CCC(=C2c3ccc(Cl)cc3CCc3cccnc32)CC1 [Compound 2.9] | 6.3 | 25 | 0.01 to 10 | 0.01 to 10 |  |  | 
2 | O=S(=O)(Cc1ccccc1)N1CCC(=C2c3ccc(Cl)cc3CCc3cccnc32)CC1 [Compound 2.12] |  |  |  |  | only weak antiproliferative activity | 14 | at least 32 fold
